The target in experiment [1] is T1, NAD-dependent protein deacylase sirtuin-5, mitochondrial (Homo sapiens, UniProt Q9NXA8). Kind of experiment: Inhibition of recombinant human SIRT5 at 50 uM using flour de lys succinyl as substrate in presence of NAD+ by fluorometric assay relative to control.
Target sequence in this assay (Q9NXA8 37-310 limits assumed): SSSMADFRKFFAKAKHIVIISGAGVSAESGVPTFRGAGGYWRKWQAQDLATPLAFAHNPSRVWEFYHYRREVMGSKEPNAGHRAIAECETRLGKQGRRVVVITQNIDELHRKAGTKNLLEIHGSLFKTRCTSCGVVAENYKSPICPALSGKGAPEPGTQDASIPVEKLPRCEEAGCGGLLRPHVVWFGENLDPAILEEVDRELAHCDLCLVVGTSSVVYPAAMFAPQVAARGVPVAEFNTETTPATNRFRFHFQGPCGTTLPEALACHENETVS
Experiment [2] concerns the target T2, NAD-dependent protein deacetylase sirtuin-1 (Homo sapiens) (UniProt Q96EB6).
T2 sequence (whole entry): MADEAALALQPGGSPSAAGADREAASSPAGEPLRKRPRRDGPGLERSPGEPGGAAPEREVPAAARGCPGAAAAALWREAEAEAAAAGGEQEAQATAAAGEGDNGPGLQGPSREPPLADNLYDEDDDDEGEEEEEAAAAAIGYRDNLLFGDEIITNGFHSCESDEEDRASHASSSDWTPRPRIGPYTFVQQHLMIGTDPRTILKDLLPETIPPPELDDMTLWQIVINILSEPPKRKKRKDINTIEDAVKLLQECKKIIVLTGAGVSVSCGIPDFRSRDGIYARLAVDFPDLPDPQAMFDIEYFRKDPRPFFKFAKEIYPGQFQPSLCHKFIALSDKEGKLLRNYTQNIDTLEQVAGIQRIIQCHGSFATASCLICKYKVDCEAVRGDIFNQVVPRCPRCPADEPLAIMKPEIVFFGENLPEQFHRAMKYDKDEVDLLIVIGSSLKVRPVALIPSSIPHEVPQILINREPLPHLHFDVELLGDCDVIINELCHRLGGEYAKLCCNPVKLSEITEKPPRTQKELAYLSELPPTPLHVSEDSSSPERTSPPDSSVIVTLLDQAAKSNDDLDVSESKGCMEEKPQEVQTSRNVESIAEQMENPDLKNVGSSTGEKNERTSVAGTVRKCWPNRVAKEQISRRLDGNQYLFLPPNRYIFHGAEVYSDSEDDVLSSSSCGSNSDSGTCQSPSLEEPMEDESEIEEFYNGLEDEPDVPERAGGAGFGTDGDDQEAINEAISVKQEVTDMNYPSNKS
Kind of experiment: Inhibition of recombinant human SIRT1 (133 to 747 residues) expressed in Escherichia coli BL21(DE3) at 50 uM using ZMAL as substrate incubated for 4 hrs in presence of NAD+ followed by incubation with trypsin for 20 mins by trypsin-coupled assay based homogenous fluorescence analysis relative to control. Conditions: time 260.0 min.

In experiment [3] the target is T1, NAD-dependent protein deacylase sirtuin-5, mitochondrial. Nature of the experiment: Competitive inhibition of recombinant human SIRT5 assessed as substrate conversion at 50 uM using ZKsA as substrate in presence of increasing concentration of NAD+ by trypsin-coupled assay.
Target sequence in this assay (Q9NXA8 37-310 limits assumed): as the sequence (Q9NXA8 37-310 limits assumed) above
For experiment [4] the target is unchanged. Nature of the experiment: Competitive inhibition of recombinant human SIRT5 assessed as substrate conversion at 50 uM using increasing concentration of ZKsA as substrate in presence of NAD+ by trypsin-coupled assay.
Target sequence in this assay (Q9NXA8 37-310 limits assumed): as the sequence (Q9NXA8 37-310 limits assumed) above
The target of experiment [5] is T3, NAD-dependent protein deacetylase sirtuin-2 (Homo sapiens) (UniProt Q8IXJ6).
T3 sequence (whole entry): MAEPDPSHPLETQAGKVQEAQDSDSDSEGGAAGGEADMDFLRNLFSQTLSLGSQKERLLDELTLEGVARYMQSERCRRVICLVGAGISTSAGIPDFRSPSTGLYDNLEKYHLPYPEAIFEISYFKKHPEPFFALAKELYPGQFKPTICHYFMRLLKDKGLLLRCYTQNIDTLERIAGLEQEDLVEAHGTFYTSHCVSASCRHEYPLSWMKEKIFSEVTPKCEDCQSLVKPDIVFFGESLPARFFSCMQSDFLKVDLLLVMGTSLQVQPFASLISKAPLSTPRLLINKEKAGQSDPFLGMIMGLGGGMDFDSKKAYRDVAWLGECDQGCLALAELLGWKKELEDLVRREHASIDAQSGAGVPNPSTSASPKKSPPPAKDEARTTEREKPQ
Kind of experiment: Inhibition of recombinant human SIRT2 (25 to 389 residues) expressed in Escherichia coli BL21(DE3) at 50 uM using ZMAL as substrate incubated for 4 hrs in presence of NAD+ followed by incubation with trypsin for 20 mins by trypsin-coupled assay based homogenous fluorescence analysis relative to control. The following applies: time 260.0 min.

The target of experiment [6] is T4, NAD-dependent protein deacetylase sirtuin-3, mitochondrial (Homo sapiens) (UniProt Q9NTG7).
T4 sequence (whole entry): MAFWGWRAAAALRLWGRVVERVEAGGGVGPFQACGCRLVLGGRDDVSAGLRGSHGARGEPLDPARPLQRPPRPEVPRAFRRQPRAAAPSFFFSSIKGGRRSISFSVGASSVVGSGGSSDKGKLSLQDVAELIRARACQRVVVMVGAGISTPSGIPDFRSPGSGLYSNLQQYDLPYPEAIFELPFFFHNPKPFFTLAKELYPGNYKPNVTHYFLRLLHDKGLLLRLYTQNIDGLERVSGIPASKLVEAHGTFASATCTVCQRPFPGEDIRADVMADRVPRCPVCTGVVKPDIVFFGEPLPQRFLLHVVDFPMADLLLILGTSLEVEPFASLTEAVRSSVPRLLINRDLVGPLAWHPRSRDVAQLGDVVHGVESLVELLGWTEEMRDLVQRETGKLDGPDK
Nature of the experiment: Inhibition of recombinant human SIRT3 (101 to 399 residues) expressed in Escherichia coli BL21(DE3) at 100 uM using ZMAL as substrate incubated for 4 hrs in presence of NAD+ followed by incubation with trypsin for 20 mins by trypsin-coupled assay based homogenous fluorescence analysis relative to control. The following applies: time 260.0 min.

The target in experiment [7] is T3, NAD-dependent protein deacetylase sirtuin-2 (Homo sapiens). Nature of the experiment: Inhibition of recombinant human SIRT2 (25 to 389 residues) expressed in Escherichia coli BL21(DE3) at 100 uM using ZMAL as substrate incubated for 4 hrs in presence of NAD+ followed by incubation with trypsin for 20 mins by trypsin-coupled assay based homogenous fluorescence analysis relative to control. Conditions: time 260.0 min.

The target in experiment [8] is T2, NAD-dependent protein deacetylase sirtuin-1 (Homo sapiens). Kind of experiment: Inhibition of recombinant human SIRT1 (133 to 747 residues) expressed in Escherichia coli BL21(DE3) at 100 uM using ZMAL as substrate incubated for 4 hrs in presence of NAD+ followed by incubation with trypsin for 20 mins by trypsin-coupled assay based homogenous fluorescence analysis relative to control. The following applies: time 260.0 min.

The target in experiment [9] is T1, NAD-dependent protein deacylase sirtuin-5, mitochondrial. Kind of experiment: Inhibition of SIRT5 (unknown origin).
Target sequence in this assay (Q9NXA8 whole entry): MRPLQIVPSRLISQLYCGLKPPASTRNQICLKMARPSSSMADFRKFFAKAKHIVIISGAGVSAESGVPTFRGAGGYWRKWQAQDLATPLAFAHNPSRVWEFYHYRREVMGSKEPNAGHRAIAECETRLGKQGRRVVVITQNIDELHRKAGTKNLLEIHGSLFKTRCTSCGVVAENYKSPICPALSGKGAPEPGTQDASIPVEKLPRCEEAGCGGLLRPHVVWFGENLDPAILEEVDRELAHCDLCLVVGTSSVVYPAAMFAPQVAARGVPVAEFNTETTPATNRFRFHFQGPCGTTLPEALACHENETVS
Experiment [10] shares this target. Nature of the experiment: Inhibition of recombinant human SIRT5 using flour de lys succinyl as substrate in presence of NAD+ by fluorometric assay.
Target sequence in this assay (Q9NXA8 whole entry): as above

pIC50: −log10 of the molar value. Calls of active or inactive are those of the source. The rule behind the calls is not given here.

Turning to `O=C(O)CCNCc1ccc(/N=N/c2ccc(O)c(C(=O)O)c2)cc1`, the inhibition (as a rule, the relative decrease from the control value, in per cent) was 27% in experiment [1], below 10% in experiment [2] and 19% in experiment [5]. Further, the inhibition entry in experiment [3] and in experiment [4] was “inactive” in each case.

Regarding `NC(=O)c1ccc(/N=N/c2ccc(O)c(C(=O)O)c2)cc1`, the inhibition in experiment [1] stood at 32%.

In the case of `O=C(O)CCNC(=O)c1ccc(/N=N/c2ccccc2)cc1`, the inhibition in experiment [1] is 62%; in experiment [2], below 10%; in experiment [5] it was 16%; in [7], below 25%. Also, the inhibition entry in experiment [6] and in [8] was “inactive” in each case.

As for `O=C(O)CCNC(=O)c1ccc(/N=N/c2cccc(C(=O)O)c2)cc1`, the inhibition in experiment [1] was 63%; in experiment [2] it was below 10%; in [5] it was 21%; in [7], below 25%. For the same molecule, the inhibition result in experiment [6] and in experiment [8] was “inactive” each time.

`O=C(O)CNC(=S)Nc1ccc(/N=N/c2ccc(O)c(C(=O)O)c2)cc1`: in [1], the inhibition was 24%.

In the case of `O=C(O)CCCC(=O)c1ccc(/N=N/c2ccc(O)c(C(=O)O)c2)cc1`, the inhibition in experiment [1] is 54%.

On to `O=C(O)CCOCc1ccc(/N=N/c2ccc(O)c(C(=O)O)c2)cc1`, for which the inhibition in [1] came to 33%.

For `NC(=O)c1cccnc1`, the inhibition in experiment [2] worked out at 21%; in experiment [5], 65%.

`Cc1cc(C(C#N)c2ccc(Cl)cc2)c(Cl)cc1NC(=O)c1cc(I)cc(I)c1O` (configuration not stated) [CLOSANTEL]: the pIC50 (in general, −log10 of the IC50, conventionally taken in molar units) in experiment [9] was 5.57.

Take `C[C@]12CC[C@@H]3c4ccc(O)cc4C[C@@H](CCCCCCCCC[S+]([O-])CCCC(F)(F)C(F)(F)F)[C@H]3[C@@H]1CC[C@@H]2O` (some centres not stated) [FULVESTRANT]: in [9], the negative-log IC50 (pIC50) is 5.59.

As for `Cc1ccc(C(=O)Nc2ccc(S(=O)(=O)O)c3cc(S(=O)(=O)O)cc(S(=O)(=O)O)c23)cc1NC(=O)c1cccc(NC(=O)Nc2cccc(C(=O)Nc3cc(C(=O)Nc4ccc(S(=O)(=O)O)c5cc(S(=O)(=O)O)cc(S(=O)(=O)O)c45)ccc3C)c2)c1`, the inhibition in [1] came to 53%; in experiment [2], 95%.

Take `C=C1c2cccc(O)c2C(=O)C2=C(O)[C@]3(O)C(=O)C(C(N)=O)=C(O)[C@@H](N(C)C)[C@@H]3[C@@H](O)[C@H]12` [METHACYCLINE]: the negative-log IC50 (pIC50) in [9] is 5.44.

Turning to `CC(C)(Sc1cc(C(C)(C)C)c(O)c(C(C)(C)C)c1)Sc1cc(C(C)(C)C)c(O)c(C(C)(C)C)c1` [PROBUCOL], the pIC50 in [9] is 5.80.

In the case of `O=C(O)CCCCc1ccc(/N=N/c2ccc(O)c(C(=O)O)c2)cc1`, in experiment [1], the inhibition stood at 32%.

Regarding `O=C(O)CCC(=O)Nc1ccc(/N=N/c2ccc(O)c(C(=O)O)c2)cc1`, in [1], the inhibition came to 26%.

In the case of `O=C(O)CCCC(O)c1ccc(/N=N/c2ccc(O)c(C(=O)O)c2)cc1` (configuration not stated), the inhibition in [1] came to 39%.

As for `O=C(O)CCNC(=O)c1ccc(/N=N/c2ccc(O)c(C(=O)O)c2)cc1` [BALSALAZIDE], the inhibition in experiment [1] was 83%; in [2] it was below 10%; in experiment [5] it was 11%. Also, the inhibition result in experiment [3] and in experiment [4] was “inactive” each time. Further, the negative-log IC50 (pIC50) is 5.41 in experiment [9] and 5.28 in experiment [10].

Regarding `O=C(O)CCNC(=O)c1ccc(/N=N/c2ccc(O)cc2)cc1`, the figures for the inhibition in [1], in experiment [2] and in experiment [5] were 73%, below 10% and 26%, respectively. Moreover, the inhibition entry in experiment [3] and in [4] was “inactive” in each case.

As for `CCCNC(=O)c1ccc(/N=N/c2ccc(O)c(C(=O)O)c2)cc1`, in experiment [1], the inhibition worked out at 31%.

Regarding `O=C(O)c1ccc(/N=N/c2ccc(O)c(C(=O)O)c2)cc1`, the inhibition in [1] was determined as 27%.

Turning to `CC1=C2C(=COC(C)C2C)C(O)=C(C(=O)O)C1=O` (configuration not stated), the pIC50 in experiment [9] is 4.05.

The values above are taken from ChEMBL document CHEMBL4765439, “Identification of the subtype-selective Sirt5 inhibitor balsalazide through systematic SAR analysis and rationalization via theoretical investigations” (Eur J Med Chem, 2020).
